One data set deals with T. cruzi amastigotes. The data set can be described thus: High-content screening assay on intracellular T. cruzi amastigotes. It counts as cell-based, Trypanosoma cruzi. As to conditions: for EC50: Y strain in C2C12 host cells, 72 h, read-out: Anti-T. cruzi Activity Amastigotes (EC50 ± SD). The method, then:
(§1) For the evaluation of the activity against T. cruzi amastigotes, high-content screening (HCS) was designed. In summary, 100 μL of host C2C12 cells (ATCC) were seeded in clear bottom black 96-well plates at a density of 2.5 x 10^4 cells/mL (2.5 × 10^3 cells/well). After 24 hrs, 50 μL of Y strain tissue culture-derived trypomastigotes were used to infect the host cells at a density of 7.5 x 10^5/mL (3.75 x 10^4 parasites/well). The parasites were allowed to infect for a 24 hr period, after which compounds were added in a volume of 50 μL. […] After 72 hrs of compound incubation, the wells were fixed with 4% paraformaldehyde for 15 to 30 mins. The plates were then washed once with deionized water and stained with a solution of DAPI (3 μM) for 1 hour. Plates were imaged in an INCell 2000 (GE Healthcare) high-content analyser by taking 16 pictures per well at 20 X objective amplification. Images were analysed with INCell Developer software (GE Healthcare) using the segmentation of host cell nuclei and parasite kinetoplast DNA. The measurement output used was the average number of parasites per cell calculated by the ratio of host cell nuclei/parasite kinetoplast DNA.
In this assay, the compounds are incubated for 72 hours with cells previously infected with wild-type trypomastigotes for 24 hours. The readout was done by comparing the average number of amastigotes per cell that developed by the end of the incubation period. The quality of the assay was statistically evaluated by the calculation of the z-factor [75], that represents the reliability of the assay in distinguishing positive controls confidently from negative controls. Varying from 0 to 1, z-factor values higher than 0.5 are considered acceptable for drug screening. The z-factor obtained was 0.68, validating the use of the assay (S3B Fig).

Data set [1] in a line: C2C12 host cell cytotoxicity (cell ratio) in HCS assay. It counts as cell-based, Mouse. As to conditions: mouse, cell ratio, 72 h; read-out: C2C12 Cytotoxicity (CC50 ± SD). The method, then: as §1, with “After 24 hrs, 50 μL of Y strain tissue culture-derived trypomastigotes were used to infect the host cells at a density of 7.5 x 10^5/mL (3.75 x 10^4 parasites/well).” left out

A further data set has as its system C2C12 cells. Described as above. It counts as cell-based, Mouse. To be noted: for Selectivity Index: CC50 cell line (C2C12)/EC50 T. cruzi; for CC50: cell ratio, 72 h, read-out: C2C12 Cytotoxicity (CC50 ± SD). As for the experimental part: as §1, with “After 24 hrs, 50 μL of Y strain tissue culture-derived trypomastigotes were used to infect the host cells at a density of 7.5 x 10^5/mL (3.75 x 10^4 parasites/well).” left out

A further data set concerns the target T1, human SIRT1 (Homo sapiens, UniProt Q96EB6).
T1 sequence (Q96EB6 1-747): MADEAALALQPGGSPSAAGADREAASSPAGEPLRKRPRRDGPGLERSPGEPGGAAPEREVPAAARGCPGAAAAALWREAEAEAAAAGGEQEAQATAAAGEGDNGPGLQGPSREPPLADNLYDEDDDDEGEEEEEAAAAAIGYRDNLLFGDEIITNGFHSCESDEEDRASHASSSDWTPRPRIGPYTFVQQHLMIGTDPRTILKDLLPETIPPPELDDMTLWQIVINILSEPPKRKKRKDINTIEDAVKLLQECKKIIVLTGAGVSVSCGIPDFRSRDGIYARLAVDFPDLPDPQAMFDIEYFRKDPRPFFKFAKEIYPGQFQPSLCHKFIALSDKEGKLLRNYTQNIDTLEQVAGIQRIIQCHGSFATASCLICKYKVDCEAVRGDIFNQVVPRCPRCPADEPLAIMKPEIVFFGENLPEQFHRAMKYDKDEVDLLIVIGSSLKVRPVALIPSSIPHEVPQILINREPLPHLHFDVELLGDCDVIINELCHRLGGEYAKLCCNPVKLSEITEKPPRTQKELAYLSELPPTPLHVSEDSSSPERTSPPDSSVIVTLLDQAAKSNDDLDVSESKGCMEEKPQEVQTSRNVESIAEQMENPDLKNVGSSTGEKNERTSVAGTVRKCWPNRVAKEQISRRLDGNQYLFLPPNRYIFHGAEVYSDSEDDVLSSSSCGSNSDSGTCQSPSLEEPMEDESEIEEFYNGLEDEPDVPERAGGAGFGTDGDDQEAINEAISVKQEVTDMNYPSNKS
The data set can be described thus: hSIRT1 deacetylase inhibition (CycLex kit). The data set is classed as biochemical. To be noted: 10 µM, n=2, N.I. = no inhibition; for inhibition at 10 µM: read-out: hSIRT1 Inhibition at 10 µM (% ± SD).

For the next data set, the target named is TcSir2rp1 (Trypanosoma cruzi, UniProt Q4DVL9). The data set can be described thus: TcSir2rp1 NAD+-dependent deacetylase fluorimetric assay (CycLex kit). It counts as biochemical. As to conditions: for Inhibition of NAD+-dependent deacetylase activity of TcSir2rp1 / inhibition at 10 µM: single dose 10 μM, 200 μM NAD+, 10 μM peptide. The method, then:
The deacetylase activity was measured using the commercial SIRT1/Sir2 Deacetylase Fluorometric Assay Kit (CycLex,Japan) according to the manufacturer’s recommendations. Briefly, fluorescence emission after digestion of deacetylated substrates by a lysine specific endopeptidase was measured in a fluorometric plate reader (Synergy HT, BioTek) with excitation and emission wavelengths set at 340 and 440 nm, respectively, every 30 seconds for 1 hour. The slope of the linear part of the reaction was calculated and used as readout of enzyme activity. […]
A variety of the bisnaphthalimidopropyl (BNIPs) derivatives, as well as the newly synthetized derivatives were evaluated as potential TcSir2rp1 inhibitors. The enzymatic reactions were performed using a commercially available CycLex SIRT1/Sir2 deacetylase fluorimetric kit (CycLex Co. Ltd., Nagano, Japan) in the absence and presence of the various inhibitors, 200 μM NAD^+ and 10 μM of peptide substrate as previously described.
A variety of the bisnaphthalimidopropyl (BNIPs) derivatives, as well as the newly synthetized derivatives were evaluated as potential TcSir2rp1 inhibitors. The enzymatic reactions were performed using a commercially available CycLex SIRT1/Sir2 deacetylase fluorimetric kit (CycLex Co. Ltd., Nagano, Japan) in the absence and presence of the various inhibitors, 200 µM NAD^+ and 10 µM of peptide substrate as previously described.

A short description of a further data set: Solubility. The data set is classed as physicochemical. To be noted: limits the concentration tested.

“Also recorded” adds a separate entry of the source. Where two headings read alike, the source gives them in different places.

The EC50 is the concentration that produces a half-maximal response. A word on the CC50: it is the concentration giving 50% cytotoxicity. The term inhibition denotes the share of the control response that was lost under treatment.

TcSir2rp1, sequence (Q4DVL9 entry or part of it): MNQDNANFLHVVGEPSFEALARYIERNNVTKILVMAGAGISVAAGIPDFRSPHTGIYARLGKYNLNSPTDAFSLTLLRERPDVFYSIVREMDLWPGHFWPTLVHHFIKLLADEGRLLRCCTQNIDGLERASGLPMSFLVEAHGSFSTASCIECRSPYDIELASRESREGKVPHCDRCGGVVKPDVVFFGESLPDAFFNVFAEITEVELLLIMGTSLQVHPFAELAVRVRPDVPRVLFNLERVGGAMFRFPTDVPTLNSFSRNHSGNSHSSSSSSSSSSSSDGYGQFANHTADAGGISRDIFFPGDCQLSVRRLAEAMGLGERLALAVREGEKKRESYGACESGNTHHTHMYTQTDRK

For the compound `O=C1c2cccc3cccc(c23)C(=O)N1CCCNCCCCNCCCN1C(=O)c2cccc3cccc(c23)C1=O` [Compound 1], the EC50 with T. cruzi amastigotes (Trypanosoma cruzi, C2C12, 72 h) was 1710 ± 230 nM. In addition, the CC50 at 72 h in data set [1] was found to be 2910 ± 940 nM. Besides, the “Selectivity Index” value in the data set on C2C12 cells is 1.7.

Regarding `O=C1c2cccc3cccc(c23)C(=O)N1CCCNC1CCC(NCCCN2C(=O)c3cccc4cccc(c34)C2=O)CC1` (stereo not shown) [Compound 1a], in the data set on T. cruzi amastigotes, the EC50 was determined as 6090 ± 140 nM. Also, in the data set with C2C12 cells, the “Selectivity Index” value was found to be 1.4 and the CC50 was found to be 8740 ± 1140 nM. For the same compound, the “hSIRT1 Inhibition at 10 µM (% ± SD)” value on human SIRT1 came to 1 ± 1%.

For the compound `O=C1c2cccc3cccc(c23)C(=O)N1CCCNC1CCC(NCCCN2C(=O)c3cccc4cccc(c34)C2=O)CC1` (stereo not shown) [Compound 1b], the EC50 with T. cruzi amastigotes was determined as 780 ± 120 nM. Further, in the data set on C2C12 cells, the “Selectivity Index” value is greater than 3.2 and the CC50 is greater than 2500 nM. Further, the “hSIRT1 Inhibition at 10 µM (% ± SD)” value on human SIRT1 turned out to be 3 ± 4%.

On to `O=C1c2cccc3cccc(c23)C(=O)N1CCCNc1ccc(NCCCN2C(=O)c3cccc4cccc(c34)C2=O)cc1` [Compound 1c], for which, on human SIRT1, the “hSIRT1 Inhibition at 10 µM (% ± SD)” value was “N.I”.

With `O=C1c2cccc3cccc(c23)C(=O)N1CCCNCCCCCCCCNCCCN1C(=O)c2cccc3cccc(c23)C1=O` [Compound 5], the “Activity against amastigotes (primary screening)” value in the data set with T. cruzi amastigotes (single dose screening) is “very little if any activity”. The “Inhibition of NAD+-dependent deacetylase activity of TcSir2rp1” value (“Inhibition … of TcSir2rp1” below) on TcSir2rp1 is reported as “not active; also recorded: very little if any activity”.

In the case of `O=C1c2cccc3cccc(c23)C(=O)N1CCCN1CCC(CCCC2CCN(CCCN3C(=O)c4cccc5cccc(c45)C3=O)CC2)CC1` [Compound 6a], the EC50 in the data set with T. cruzi amastigotes (Trypanosoma cruzi, C2C12, 72 h) amounted to 1450 ± 300 nM. The CC50 at 72 h in data set [1] came out at 2880 ± 120 nM. For the same compound, the “Selectivity Index” value with C2C12 cells came out at 2.0. Also, on human SIRT1, the inhibition at 10 µM is 3 ± 4%.

Take `O=C1c2cccc3cccc(c23)C(=O)N1CCCNC1CCC(CC2CCC(NCCCN3C(=O)c4cccc5cccc(c45)C3=O)CC2)CC1` (stereo not shown) [Compound 6b]: the inhibition at 10 µM was 44 ± 8% on human SIRT1 and 8 ± 5% on TcSir2rp1.

As to `O=C1c2cccc3cccc(c23)C(=O)N1CCCNc1ccc(Cc2ccc(NCCCN3C(=O)c4cccc5cccc(c45)C3=O)cc2)cc1` [Compound 6c], the “Solubility in assay (qualitative)” value in “Solubility” is “poor solubility”. In addition, the inhibition at 10 µM at human SIRT1 was 8 ± 1%.

Consider `O=C1c2cccc3cccc(c23)C(=O)N1CCCNCCCN1CCN(CCCNCCCN2C(=O)c3cccc4cccc(c34)C2=O)CC1` [Compound 7a], for which, in the data set on T. cruzi amastigotes (Trypanosoma cruzi, C2C12, 72 h), the EC50 came out at 13600 ± 2900 nM. In addition, the CC50 at 72 h in data set [1] stood at 19300 ± 5640 nM. Moreover, the “Selectivity Index” value in the data set on C2C12 cells worked out at 1.4. On human SIRT1, the “hSIRT1 Inhibition at 10 µM (% ± SD)” value is “N.I”.

Consider `O=C1c2cccc3cccc(c23)C(=O)N1CCCNCCCCCCCCCCCCNCCCN1C(=O)c2cccc3cccc(c23)C1=O` [Compound 8], for which, in the data set on T. cruzi amastigotes (Trypanosoma cruzi, C2C12, 72 h), the EC50 came out at 1430 ± 100 nM. Further, the CC50 at 72 h in data set [1] is 1910 ± 60 nM. For the same compound, the “Selectivity Index” value in the data set with C2C12 cells worked out at 1.3. Also, at TcSir2rp1, the inhibition at 50 µM amounted to 31 ± 9% and the “Inhibition … of TcSir2rp1” value is “statistically significant inhibition”.

Regarding `O=C1c2cccc3cccc(c23)C(=O)N1CCCNCCOCCOCCNCCCN1C(=O)c2cccc3cccc(c23)C1=O` [Compound 9a], the EC50 with T. cruzi amastigotes (Trypanosoma cruzi, C2C12, 72 h) was found to be 3430 ± 570 nM. The CC50 at 72 h in data set [1] is 7370 ± 650 nM. The “Selectivity Index” value in the data set on C2C12 cells came out at 2.1. Also, the inhibition at 10 µM on human SIRT1 amounted to 3 ± 4%. Besides, at TcSir2rp1, the inhibition at 50 µM was 29 ± 4%, the “Inhibition … of TcSir2rp1” value is reported as “statistically significant inhibition” and the inhibition at 10 µM was 28 ± 13%.

As for `O=C1c2cccc3cccc(c23)C(=O)N1CCCNCCCNCCCCNCCCNCCCN1C(=O)c2cccc3cccc(c23)C1=O` [Compound 10], the “Solubility in assay (qualitative)” value in the data set “Solubility” is recorded as “poor solubility”.

Turning to `C[N+]1(CCCN2C(=O)c3cccc4cccc(c34)C2=O)CCN(CCCN2C(=O)c3cccc4cccc(c34)C2=O)CC1` [Compound 12], in the data set on T. cruzi amastigotes (Trypanosoma cruzi, C2C12, 72 h), the EC50 was found to be 28700 ± 4090 nM. For the same compound, in data set [1], the CC50 at 72 h is greater than 50000 nM. The “Selectivity Index” value with C2C12 cells is recorded as greater than 1.7. The “hSIRT1 Inhibition at 10 µM (% ± SD)” value on human SIRT1 is recorded as “N.I”.

In the case of `O=C1c2cccc3c(Cl)ccc(c23)C(=O)N1CCCN1CCN(CCCN2C(=O)c3cccc4c(Cl)ccc(c34)C2=O)CC1` [Compound 13], in “Solubility”, the “Solubility in assay (qualitative)” value is “low solubility”. In the data set with T. cruzi amastigotes (Trypanosoma cruzi, C2C12, 72 h), the EC50 was found to be 590 ± 230 nM. Further, the CC50 at 72 h in data set [1] is greater than 2500 nM. In addition, on human SIRT1, the inhibition at 10 µM turned out to be 15 ± 4%. On TcSir2rp1, the inhibition at 20 µM amounted to 48 ± 6%, the “Inhibition … of TcSir2rp1” value was “statistically significant inhibition” and the inhibition at 10 µM worked out at 50 ± 8%. Further, the “Inhibition of T. cruzi enzyme relative to hSIRT1, fold higher” value on TcSir2rp1 (both at 10 μM) is “at least 3 fold”.

As for `CC(/C=C/C(=O)NO)=C\[C@@H](C)C(=O)c1ccc(N(C)C)cc1` [trichostatin A, reference compound], at TcSir2rp1 (inhibitor at 1 μM), the “TcSir2rp1 deacetylase activity still displayed” value was 77 ± 8%.

The record behind these values is paper PMC5794198, “Inhibitors of Trypanosoma cruzi Sir2 related protein 1 as potential drugs against Chagas disease” (PLoS Neglected Tropical Diseases, 2018).
